Consider 53 compounds from patent US9049863B2, “Substituted (3R,4R)-4-cyan-3,4-diphenylbutanoates, method for the production thereof and use thereof as herbicides and plant growth regulators” (Bayer Intellectual Property GmbH, priority 2011, dated 2015).

The test system of the test is a plurality of harmful plants. Kind of test: Herbicidal pre-emergence action. Type of test: in vivo. As to conditions: 320 g or less of active substance per hectare. The text has this:
Seeds of monocotyledonous and dicotyledonous weed plants and crop plants are placed in wood-fiber pots in sandy loam and covered with soil. The compounds (I) according to the invention, formulated in the form of wettable powders (WP), are then applied as aqueous suspension or emulsion at a water application rate of 600 l/ha (converted) with the addition of 0.2% of wetting agent to the surface of the covering soil.
After the treatment, the pots are placed in a greenhouse and kept under good growth conditions for the test plants. After about 3 weeks, the effect of the preparations is scored visually in comparison with untreated controls as percentages. For example, 100% activity=the plants have died, 50% herbicidal activity or damage=the plants have been reduced by 50% or the plant mass has been reduced by 50%, 0% activity=like control plants.
For the compound `COC(=O)C[C@@H](c1cccc(F)c1)[C@@H](C#N)c1cccc(F)c1` [Example 2], the “herbicidal activity against a plurality of harmful plants” value (shortened to “herbicidal activity against a plurality”) was “good herbicidal activity”.
The entry for `COC(=O)C[C@@H](c1ccc(Cl)cc1)[C@@H](C#N)c1ccc(F)c(F)c1` [Example 3] is “good herbicidal activity”; for `COC(=O)C[C@@H](c1ccc(Br)cc1)[C@@H](C#N)c1cccc(F)c1` [Example 4] it is “good herbicidal activity”.
The entry for `COC(=O)C[C@@H](c1cccc(F)c1)[C@@H](C#N)c1cccc(Cl)c1` [Example 5] is “good herbicidal activity”; for `COC(=O)C[C@@H](c1cccc(F)c1)[C@@H](C#N)c1ccc(F)c(F)c1` [Example 6] it is “good herbicidal activity”.
As for `COC(=O)C[C@@H](c1cccc(F)c1)[C@@H](C#N)c1ccccc1` [Example 7], the “herbicidal activity against a plurality” value is recorded as “good herbicidal activity”.
The entry for `COC(=O)C[C@@H](c1cccc(F)c1)[C@@H](C#N)c1ccc(F)cc1` [Example 8] is “good herbicidal activity”; for `COC(=O)C[C@@H](c1cccc(Cl)c1)[C@@H](C#N)c1cccc(F)c1` [Example 9] it is “good herbicidal activity”.
The entry for `COC(=O)C[C@@H](c1cccc(Cl)c1)[C@@H](C#N)c1ccc(F)c(F)c1` [Example 10, Methyl (3R,4R)-3-(3-chlorophenyl)-4-cyano-4-(3,4-difluorophenyl)butanoate] is “good herbicidal activity”; for `COC(=O)C[C@@H](c1cccc(F)c1)[C@@H](C#N)c1cccc(Br)c1` [Example 11] it is “good herbicidal activity”; for `COC(=O)C[C@@H](c1cccc(F)c1)[C@@H](C#N)c1cc(F)cc(F)c1` [Example 12] it is “good herbicidal activity”.
The entry for `COC(=O)C[C@@H](c1ccccc1F)[C@@H](C#N)c1cccc(F)c1` [Example 13] is “good herbicidal activity”.
In the case of `COC(=O)C[C@@H](c1ccc(Cl)cc1)[C@@H](C#N)c1cc(F)c(F)c(F)c1` [Example 14], the “herbicidal activity against a plurality” value was “good herbicidal activity”.
The entry for `COC(=O)C[C@@H](c1cccc(Cl)c1)[C@@H](C#N)c1ccc(F)cc1` [Example 15] is “good herbicidal activity”; for `COC(=O)C[C@@H](c1ccc(Cl)c(F)c1)[C@@H](C#N)c1ccc(F)c(F)c1` [Example 16] it is “good herbicidal activity”; for `COC(=O)C[C@@H](c1ccccc1F)[C@@H](C#N)c1ccc(F)c(F)c1` [Example 17] it is “good herbicidal activity”.
The entry for `COC(=O)C[C@@H](c1cccc(F)c1F)[C@@H](C#N)c1cccc(F)c1` [Example 18] is “good herbicidal activity”; for `COC(=O)C[C@@H](c1cc(F)cc(F)c1)[C@@H](C#N)c1ccc(F)cc1` [Example 19] it is “good herbicidal activity”; for `COC(=O)C[C@@H](c1ccc(F)cc1)[C@@H](C#N)c1cccc(F)c1` [Example 20] it is “good herbicidal activity”.
Consider `COC(=O)C[C@@H](c1cc(F)cc(Cl)c1)[C@@H](C#N)c1ccc(F)c(F)c1` [Example 21], for which the “herbicidal activity against a plurality” value is given as “good herbicidal activity”.
The entry for `COC(=O)C[C@@H](c1cc(F)cc(Cl)c1)[C@@H](C#N)c1cccc(F)c1` [Example 22] is “good herbicidal activity”.
The entry for `COC(=O)C[C@@H](c1cc(F)ccc1F)[C@@H](C#N)c1cccc(F)c1` [Example 23] is “good herbicidal activity”; for `COC(=O)C[C@@H](c1cccc(F)c1F)[C@@H](C#N)c1ccc(F)c(F)c1` [Example 24] it is “good herbicidal activity”; for `COC(=O)C[C@@H](c1cc(F)ccc1F)[C@@H](C#N)c1ccc(F)c(F)c1` [Example 25] it is “good herbicidal activity”.
`COC(=O)C[C@@H](c1cc(F)cc(Cl)c1)[C@@H](C#N)c1cccc(Cl)c1` [Example 26]: the “herbicidal activity against a plurality” value is “good herbicidal activity”.
For `COC(=O)C[C@@H](c1cccc(Cl)c1)[C@@H](C#N)c1ccc(Cl)c(F)c1` [Example 27], the “herbicidal activity against a plurality” value is “good herbicidal activity”.
The entry for `COC(=O)C[C@@H](c1cccc([N+](=O)[O-])c1)[C@@H](C#N)c1ccc(F)c(F)c1` [Example 28] is “good herbicidal activity”; for `COC(=O)C[C@@H](c1ccccc1)[C@@H](C#N)c1ccc(F)c(F)c1` [Example 29] it is “good herbicidal activity”; for `COC(=O)C[C@@H](c1cccc(F)c1)[C@@H](C#N)c1ccc(F)c(Cl)c1` [Example 30] it is “good herbicidal activity”.
The entry for `CCOC(=O)C[C@@H](c1ccc(OC)cc1)[C@@H](C#N)c1ccc(F)c(F)c1` [Example 31] is “good herbicidal activity”; for `N#C[C@@H](c1cccc(F)c1)[C@@H](CC(=O)OC1COC1)c1ccc(Cl)cc1` [Example 53] it is “good herbicidal activity”.
`N#C[C@@H](c1cccc(F)c1)[C@@H](CC(=O)OCCSc1ccccc1)c1ccc(Cl)cc1` [Example 54]: the “herbicidal activity against a plurality” value is recorded as “good herbicidal activity”.
The entry for `N#C[C@@H](c1cccc(F)c1)[C@@H](CC(=O)OCC[S+]([O-])c1ccccc1)c1ccc(Cl)cc1` (some centres unmarked) [Example 55] is “good herbicidal activity”; for `CCOC(=O)C[C@@H](c1cccc(F)c1)[C@@H](C#N)c1ccc(F)c(F)c1` [Example 83] it is “good herbicidal activity”; for `CCCOC(=O)C[C@@H](c1cccc(F)c1)[C@@H](C#N)c1ccc(F)c(F)c1` [Example 84] it is “good herbicidal activity”.
The entry for `CC(C)OC(=O)C[C@@H](c1cccc(F)c1)[C@@H](C#N)c1ccc(F)c(F)c1` [Example 85] is “good herbicidal activity”; for `CC(C)COC(=O)C[C@@H](c1cccc(F)c1)[C@@H](C#N)c1ccc(F)c(F)c1` [Example 87] it is “good herbicidal activity”.
The entry for `N#C[C@@H](c1ccc(F)c(F)c1)[C@@H](CC(=O)O)c1cccc(Cl)c1` [Example 107, (3R,4R)-3-(3-Chlorophenyl)-4-cyano-4-(3,4-difluorophenyl)butanoic acid] is “good herbicidal activity”.
With `CCOC(=O)C[C@@H](c1cccc(Cl)c1)[C@@H](C#N)c1ccc(F)c(F)c1` [Example 108], the “herbicidal activity against a plurality” value is given as “good herbicidal activity”.
With `CCCCOC(=O)C[C@@H](c1cccc(Cl)c1)[C@@H](C#N)c1ccc(F)c(F)c1` [Example 111], the “herbicidal activity against a plurality” value was “good herbicidal activity”.
The entry for `CC(C)COC(=O)C[C@@H](c1cccc(Cl)c1)[C@@H](C#N)c1ccc(F)c(F)c1` [Example 112] is “good herbicidal activity”.
The entry for `COC(=O)C[C@@H](c1c(F)cccc1F)[C@@H](C#N)c1cccc(F)c1` [Example 162] is “good herbicidal activity”.
`COC(=O)C[C@@H](c1c(F)cccc1F)[C@@H](C#N)c1ccc(F)c(F)c1` [Example 174]: the “herbicidal activity against a plurality” value is listed as “good herbicidal activity”.
The entry for `COC(=O)C[C@@H](c1cc(F)ccc1F)[C@@H](C#N)c1ccc(Cl)c(Cl)c1` [Example 208] is “good herbicidal activity”.
The entry for `COC(=O)C[C@@H](c1c(F)cccc1F)[C@@H](C#N)c1ccc(F)c(Cl)c1` [Example 227] is “good herbicidal activity”.
The entry for `CCOC(=O)C[C@@H](c1c(F)cccc1F)[C@@H](C#N)c1ccc(F)c(F)c1` [Example 283] is “good herbicidal activity”; for `COC(=O)C[C@@H](c1cccc(Cl)c1)[C@@H](C#N)c1cccc(C#N)c1` [Example 326] it is “good herbicidal activity”.
As for `COC(=O)C[C@@H](c1ccc(Cl)cc1)[C@@H](C#N)c1cccc(C#N)c1` [Example 329], the “herbicidal activity against a plurality” value was “good herbicidal activity”.
Turning to `COC(=O)C[C@@H](c1cc(F)ccc1F)[C@@H](C#N)c1cccc(C#N)c1` [Example 330], the “herbicidal activity against a plurality” value is on record as “good herbicidal activity”.
As for `COC(=O)C[C@@H](c1cccc(F)c1)[C@@H](C#N)c1ccc(F)c(C#N)c1` [Example 339], the “herbicidal activity against a plurality” value is recorded as “good herbicidal activity”.
The entry for `COC(=O)C[C@@H](c1cccc(Cl)c1)[C@@H](C#N)c1ccc(F)c(C#N)c1` [Example 340] is “good herbicidal activity”; for `COC(=O)C[C@@H](c1ccc(Cl)cc1)[C@@H](C#N)c1ccc(F)c(C#N)c1` [Example 343] it is “good herbicidal activity”; for `COC(=O)C[C@@H](c1cc(F)ccc1F)[C@@H](C#N)c1ccc(F)c(C#N)c1` [Example 344] it is “good herbicidal activity”.
